Tests used:
[1] = system: endogenous ELK4 mRNA in LNCaP cells; assay: Hormonal treatment of LNCaP cells, quantitative RT-PCR (TAQMAN) of endogenous ELK4; assay type: cell-based, human
Method: (§1) FIGS. 4a-4c. Androgen stimulation of LNCaP cells and induction of SLC45A3-ELK4 (FIG. 4a), endogenous ELK4 (FIG. 4b) mRNA and KLK3 (PSA) mRNA (FIG. 4c). Bar charts are the average fold induction in LNCaP cells treated with 1nM R1881 in the absence (black bars) or presence (gray bars) of 10 μM flutamide at the indicated time points. For flutamide treatment cells were pre-treated 2 hours with 10 μM flutamide, medium was removed and the fresh medium plus 1 nM R1881 plus 10 μM flutamide were given for the indicated time points. All experiments were run in triplicates (standard deviation indicated by the error bars).
(§2) Quantitative RT-PCR using TAQMAN technology. To quantify SLC45A3-ELK4 and endogenous ELK4 transcripts, custom designed primers and probes (SLC45A3-ELK4: primers in SLC45A3 exon 1 and ELK4 exon 2, probe in ELK4 exon 2) were employed in (ELK4, Hs00360812_m1) TAQMAN Gene Expression Assays (Applied Biosystems, Foster City, Calif.) for improved sensitivity and specificity of detection. […] Each target was run in triplicate and expression levels were calculated using the comparative Ct method (ABI Bulletin 2, Applied Biosytems) with TCFL1 as a reference gene and given as fold change over the average expression levels of benign samples. […]

[2] = system: SLC45A3-ELK4 mRNA in LNCaP cells; assay: Hormonal treatment of LNCaP cells, quantitative RT-PCR (TAQMAN) of SLC45A3-ELK4 fusion transcript; assay type: cell-based, human
Method: as §1, §2

[3] = LNCaP cells treated with R1881 (summary statement)
[4] = LNCaP cells, R1881 1 nM, twelve hours following treatment

Compound: C[C@]1(O)CC[C@H]2[C@@H]3CCC4=CC(=O)CCC4=C3C=C[C@@]21C [R1881]
- regulation of endogenous ELK4 mRNA upon treatment [1, 3]: not endogenous ELK4 mRNA, was up-regulated
- change in ELK4 (assay not targeting the fusion transcript) [1, 4]: no change
- regulation of SLC45A3-ELK4 mRNA upon treatment [2, 3]: up-regulated
- induction of SLC45A3-ELK4 [2, 4]: 25 fold
